According to patent US9248928B2, “Methods of manufacturing contact lenses for delivery of beneficial agents” (CooperVision International Holding Company, LP, priority 2012, dated 2016):
Structures can show the parent of a compound that is named as a salt. Where two headings read alike, the source gives them in different places.

How the values were obtained:
[1] = Autoclave stability of εPLL in PBS or TRIS buffered saline by HPLC; assay type: physicochemical; details: 500 ppm εPLL, no lens
Method: […] The samples were tested by HPLC at a sufficient resolution to achieve a discernable peak for each molecular weight fraction of the εPLL.

[2] = Autoclave stability of cationic agents in packaging solution
Method: (§1) As used herein, a cationic agent is considered to be autoclave-stable in a given package and packaging solution if there is less than 2% degradation of the cationic agent after it is autoclaved two times in its intended package and packaging solution without a lens present, wherein the autoclave conditions used are 120° C. for 30 minutes at about 17 psi. A reference to 2× or 3× autoclave of a package is intended to include a step of allowing the package to cool to room temperature before and after the 2nd, and if applicable, 3rd autoclave treatments. The amount of degradation is determined using an HPLC method appropriate for the cationic agent being tested. Alternatively or additionally, a cationic agent is considered autoclave-stable in a given packaging solution if the percentage of cationic agent that can be extracted from the lens after 2× autoclave is more than 95% of the percentage of cationic agent that can be extracted from a non-autoclaved lens packaged in the same packaging solution and kept at room temperature for 24 hours, where the extraction method used is substantially as described in Example 4, or an equivalent method. The percentage of cationic agent extracted from the autoclaved (test) and non-autoclaved (control) lenses is determined relative to the amount of cationic agent taken up by the test and control lenses, respectfully. Thus, for example, a control lens may take up 100 μg of a cationic agent from a packaging solution after 24 hours at room temperature and 97 μg (i.e. 97%) of the cationic agent can be extracted from the lens. If the corresponding test (2× autoclaved) lens takes up 120 μg of the cationic agent from the packaging solution, but only 108 μg (i.e. 90%) of the cationic agent is extracted using the same extraction method as for the control lens, then there is considered to be a 7% difference between the amount cationic agent extracted from control and test lenses.
Both εPLL and epinastine have primary amine groups, whereas olopatadine and ketotifen have none. […] TRIS buffer drops in pH with increased temperature, down to a pH of about 4.3 during autoclave. […] Thus, in one example, the packaging solution used in the method of manufacturing the contact lenses described herein is temperature-sensitive. By temperature-sensitive, it is meant that the pH of the packaging solution drops by at least one (e.g a drop from pH 7.5 to pH 6.5) during autoclave at 120° C. for 30 minutes. In specific examples, the pH of the temperature-sensitive packaging solution drops during autoclave by at least 1.5, 2.0, or 2.5. Exemplary temperature-sensitive buffers include {[tris(hydroxymethyl)methyl]amino}propanesulfonic acid (TAPS), N,N-bis(21-hydroxyethyl)glycine (Bicine), tris(hycroxymethyl)methylamine (TRIS), N-tris(hydroxymethyl)methylglycine (Tricine), {[tris(hydroxymethyl)methyl]amino}ethanesulfonic acid (TES), 3-(N-morpholino)propanesulfonic acid (MOPS), and the like. […] In one such example, the packaging solution comprises a TRIS buffer. In a further example, the cationic agent comprises a primary amine. In yet a further example, the cationic agent is epinastine or εPLL and the packaging solution comprises a TRIS buffer.

[3] = for % of the epinastine taken up by the lens that released (extracted): PBS
Method: as §1
The packaged lenses were either autoclaved once or twice for 20 minutes at 120° C. and then kept at room temperature overnight, or kept at room temperature overnight without autoclaving. 1.2 ml PBS comprising 200 μg/ml epinastine HCL was autoclaved once or twice in a glass vial without a lens (autoclave control solution).
Each lens was blotted dry with lint-free paper, and placed in a vial containing 10 ml of an extraction medium consisting of 60 parts of 0.3% triethylamine in deionized (pH adjusted to 4.0 using phosphoric acid) and 40 parts methanol. The vials were sonicated for 30 minutes at room temperature. The lens were removed from the extraction solution and transferred to individual vials containing 5 ml of fresh extraction medium and sonicated again for 30 minutes. For each lens, the extraction media was combined to obtain 15 ml extraction medium for each lens and the amount of epinastine extracted from each lens was measured by HPLC.
The study was repeated using silicone hydrogel contact lenses prepared according to Example 1 and packaged in TRIS buffer (described above) comprising 150 μg/ml epinastine. The lenses were autoclaved 0-3 times each.

[4] = TBS, 9 autoclaves (so in the source)
[5] = Autoclave # 0, silicone hydrogel lens, TRIS buffer with 150 μg/ml epinastine
[6] = Autoclave # 1x, silicone hydrogel lens, TRIS buffer with 150 μg/ml epinastine
[7] = Autoclave # 2x, silicone hydrogel lens, TRIS buffer with 150 μg/ml epinastine
[8] = Autoclave # 3x, silicone hydrogel lens, TRIS buffer with 150 μg/ml epinastine
[9] = Ocufilcon D lens, Autoclaved, PBS with 200 μg/ml epinastine HCl
[10] = Ocufilcon D lens, Non-Autoclaved, PBS with 200 μg/ml epinastine HCl
[11] = Silicone hydrogel lens (2x autoclave), PBS with 200 μg/ml epinastine HCl
[12] = Silicone hydrogel lens, Autoclaved, PBS with 200 μg/ml epinastine HCl
[13] = Silicone hydrogel lens, Non-Autoclaved, PBS with 200 μg/ml epinastine HCl

epsilon poly-1-lysine [εPLL]
Total # peaks ([1]; PBS, 0 autoclaves): 23 | Total peak area ([1]; PBS, 0 autoclaves): 16005557 | % Area (relative to non-autoclaved) ([1]; PBS, 2 autoclaves): 91% | Total # peaks ([1]; PBS, 2 autoclaves): 28 | Total peak area ([1]; PBS, 2 autoclaves): 14566887 | % Area (relative to non-autoclaved) ([1]; PBS, 4 autoclaves): 90% | Total # peaks ([1]; PBS, 4 autoclaves): 28 | Total peak area ([1]; PBS, 4 autoclaves): 14468122 | % Area (relative to non-autoclaved) ([1]; TBS, 2 autoclaves): 99% | Total # peaks ([1]; TBS, 2 autoclaves): 27 | Total peak area ([1]; TBS, 2 autoclaves): 14636372 | % Area (relative to non-autoclaved) ([1]; TBS, 4 autoclaves): 98% | Total # peaks ([1]; TBS, 4 autoclaves): 27 | Total peak area ([1]; TBS, 4 autoclaves): 14476291 | Total # peaks [1, 4]: 23 | Total peak area [1, 4]: 14800289 | autoclave stability ([2]; in PBS): not autoclave-stable | autoclave stability ([2]; in TRIS buffer): autoclave-stable

CN1CCC(=C2c3ccccc3CC(=O)c3sccc32)CC1 [ketotifen fumarate]
autoclave stability [2]: autoclave-stable

NC1=NCC2c3ccccc3Cc3ccccc3N12 (stereo not drawn) [epinastine]
% Δ [3, 5]: 0.2% | Extracted Amt. [3, 5]: 148.1 µg | Δ [3, 5]: 0.3 µg | % Δ [3, 6]: 1.3% | Extracted Amt. [3, 6]: 148.6 µg | Δ [3, 6]: 1.9 µg | % Δ [3, 7]: 1.3% | Extracted Amt. [3, 7]: 145.4 µg | Δ [3, 7]: 1.9 µg | % Δ [3, 8]: 3.0% | Extracted Amt. [3, 8]: 85.9 µg | Δ [3, 8]: 2.6 µg | % Δ [3, 9]: 7% | Extr. Amt. [3, 9]: 240.4 µg | Δ (uptake minus extracted) [3, 9]: 18.5 µg | % Δ [3, 10]: 2% | Extr. Amt. [3, 10]: 243.5 µg | Δ (uptake minus extracted) [3, 10]: 5.6 µg | % Δ [3, 11]: 18% | Extr. Amt. [3, 11]: 163.4 µg | Δ (uptake minus extracted) [3, 11]: 36.3 µg | % Δ [3, 12]: 10% | Extr. Amt. [3, 12]: 184.5 µg | Δ (uptake minus extracted) [3, 12]: 20.1 µg | % Δ [3, 13]: 1% | Extr. Amt. [3, 13]: 181.7 µg | Δ (uptake minus extracted) [3, 13]: 1.3 µg | % of the epinastine taken up by the lens that released (extracted) ([3]; autoclaved ocufilcon D lens): about 93% | % of the epinastine taken up by the lens that released (extracted) ([3]; autoclaved silicone hydrogel lens): ~90% | % of the epinastine taken up by the lens that released (extracted) ([3]; non-autoclaved control ocufilcon D lens): 98% | % of the epinastine taken up by the lens that released (extracted) ([3]; non-autoclaved control silicone hydrogel lens): 99% | % of the epinastine taken up by the lens that released (extracted) ([3]; silicone hydrogel lens autoclaved a second time): about 82% | autoclave stability ([2]; in PBS): not autoclave-stable | autoclave stability ([2]; in TRIS buffer): autoclave-stable

CN(C)CC/C=C1/c2ccccc2COc2ccc(CC(=O)O)cc21 [olopatadine HCl]
autoclave stability [2]: autoclave-stable
